The target of assay [1] is Tyrosine-protein kinase JAK1 (Homo sapiens, UniProt P23458). In words: Biochemical HTRF Assay Protocol: The ability of compounds to inhibit the activity of JAK1, JAK2, JAK3, and Tyk2 was measured using a recombinant purified GST-tagged catalytic domain for each enzyme (Invitrogen JAK1 #M4290, JAK2 #M4290, JAK3 #M4290, Tyk2 #M4290) in an HTRF format biochemical assay. The reactions employed a common peptide substrate, LCB-[…]-NH2 (in-house). The basic assay protocol is as follows: First, 250 nL of diluted compounds in DMSO were dispensed into the wells of a dry 384-well Black plate (Greiner #781076) using a Labcyte Echo 555 acoustic dispenser. Subsequent reagent additions employed an Agilent Bravo. Next, 18 μL of 1.11× enzyme and 1.11× substrate in 1× assay buffer (Invitrogen kinase buffer #PV3189, 2 mM DTT, 0.05% BSA) were added to the wells and shaken and then preincubated for 30 minutes at room temperature to allow compound binding to equilibrate. After equilibration, 2 μL of 10×ATP in 1× assay buffer was added to initiate the kinase reaction and the plates were shaken and then incubated at room temperature for 120 minutes. At the end of the incubation, 20 μL of 2× stop buffer (streptavidin-Dylight 650 (Thermo #84547B/100 mL), Eu-tagged pY20 antibody (Perkin Elmer #AD0067), EDTA, HEPES, and Triton) was added to quench the reaction. Plates were shaken and centrifuged and then incubated 60 minutes at room temperature and then read on a Perkin Elmer Envision (λex=337 nm, λem=665 and 615 nm, TRF delay time=20 μs). HTRF signal=10,000*665 nm reading/615 nm reading. After normalization to untreated controls, the percent inhibition of the HTRF signal at each compound concentration was calculated.

For assay [2], the target named is Tyrosine-protein kinase JAK2 (Homo sapiens, UniProt O60674). Description: Biochemical HTRF Assay Protocol: The ability of compounds to inhibit the activity of JAK1, JAK2, JAK3, and Tyk2 was measured using a recombinant purified GST-tagged catalytic domain for each enzyme (Invitrogen JAK1 #M4290, JAK2 #M4290, JAK3 #M4290, Tyk2 #M4290) in an HTRF format biochemical assay. […] Subsequent reagent additions employed an Agilent Bravo. […] After equilibration, 2 μL of 10×ATP in 1× assay buffer was added to initiate the kinase reaction and the plates were shaken and then incubated at room temperature for 120 minutes. […] After normalization to untreated controls, the percent inhibition of the HTRF signal at each compound concentration was calculated.
Chain of Tyrosine-protein kinase JAK2 (O60674 whole entry, the tested form may be a part): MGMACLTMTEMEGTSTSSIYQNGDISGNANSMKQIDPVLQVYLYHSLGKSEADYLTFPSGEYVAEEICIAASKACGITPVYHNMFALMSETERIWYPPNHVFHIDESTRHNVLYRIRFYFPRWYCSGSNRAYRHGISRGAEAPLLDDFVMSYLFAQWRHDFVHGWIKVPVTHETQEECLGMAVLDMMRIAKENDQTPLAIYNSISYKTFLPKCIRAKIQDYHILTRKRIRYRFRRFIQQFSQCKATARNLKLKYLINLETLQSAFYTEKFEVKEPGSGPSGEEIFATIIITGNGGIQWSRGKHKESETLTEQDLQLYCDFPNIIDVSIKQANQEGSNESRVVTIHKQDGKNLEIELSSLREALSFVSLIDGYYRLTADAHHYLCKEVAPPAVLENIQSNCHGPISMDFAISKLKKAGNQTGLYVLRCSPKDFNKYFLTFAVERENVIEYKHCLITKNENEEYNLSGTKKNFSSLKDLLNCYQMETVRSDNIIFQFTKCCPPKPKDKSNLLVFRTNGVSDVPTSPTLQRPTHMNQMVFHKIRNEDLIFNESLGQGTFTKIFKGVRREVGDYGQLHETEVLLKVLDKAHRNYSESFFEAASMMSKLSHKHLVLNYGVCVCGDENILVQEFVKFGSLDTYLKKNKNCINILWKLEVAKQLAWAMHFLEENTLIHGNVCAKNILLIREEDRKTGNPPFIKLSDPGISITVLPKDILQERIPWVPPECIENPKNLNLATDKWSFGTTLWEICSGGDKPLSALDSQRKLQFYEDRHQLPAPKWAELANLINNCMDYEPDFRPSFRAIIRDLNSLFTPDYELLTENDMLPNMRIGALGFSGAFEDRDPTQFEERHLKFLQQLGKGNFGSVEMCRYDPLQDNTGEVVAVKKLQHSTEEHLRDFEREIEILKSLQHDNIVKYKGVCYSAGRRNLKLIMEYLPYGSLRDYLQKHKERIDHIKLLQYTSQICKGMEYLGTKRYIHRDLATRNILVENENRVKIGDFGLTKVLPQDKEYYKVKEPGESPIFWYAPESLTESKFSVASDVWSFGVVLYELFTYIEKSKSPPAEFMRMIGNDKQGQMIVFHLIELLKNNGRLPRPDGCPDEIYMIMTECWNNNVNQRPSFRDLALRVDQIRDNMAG

Chain of Tyrosine-protein kinase JAK1 (P23458 whole entry, the tested form may be a part): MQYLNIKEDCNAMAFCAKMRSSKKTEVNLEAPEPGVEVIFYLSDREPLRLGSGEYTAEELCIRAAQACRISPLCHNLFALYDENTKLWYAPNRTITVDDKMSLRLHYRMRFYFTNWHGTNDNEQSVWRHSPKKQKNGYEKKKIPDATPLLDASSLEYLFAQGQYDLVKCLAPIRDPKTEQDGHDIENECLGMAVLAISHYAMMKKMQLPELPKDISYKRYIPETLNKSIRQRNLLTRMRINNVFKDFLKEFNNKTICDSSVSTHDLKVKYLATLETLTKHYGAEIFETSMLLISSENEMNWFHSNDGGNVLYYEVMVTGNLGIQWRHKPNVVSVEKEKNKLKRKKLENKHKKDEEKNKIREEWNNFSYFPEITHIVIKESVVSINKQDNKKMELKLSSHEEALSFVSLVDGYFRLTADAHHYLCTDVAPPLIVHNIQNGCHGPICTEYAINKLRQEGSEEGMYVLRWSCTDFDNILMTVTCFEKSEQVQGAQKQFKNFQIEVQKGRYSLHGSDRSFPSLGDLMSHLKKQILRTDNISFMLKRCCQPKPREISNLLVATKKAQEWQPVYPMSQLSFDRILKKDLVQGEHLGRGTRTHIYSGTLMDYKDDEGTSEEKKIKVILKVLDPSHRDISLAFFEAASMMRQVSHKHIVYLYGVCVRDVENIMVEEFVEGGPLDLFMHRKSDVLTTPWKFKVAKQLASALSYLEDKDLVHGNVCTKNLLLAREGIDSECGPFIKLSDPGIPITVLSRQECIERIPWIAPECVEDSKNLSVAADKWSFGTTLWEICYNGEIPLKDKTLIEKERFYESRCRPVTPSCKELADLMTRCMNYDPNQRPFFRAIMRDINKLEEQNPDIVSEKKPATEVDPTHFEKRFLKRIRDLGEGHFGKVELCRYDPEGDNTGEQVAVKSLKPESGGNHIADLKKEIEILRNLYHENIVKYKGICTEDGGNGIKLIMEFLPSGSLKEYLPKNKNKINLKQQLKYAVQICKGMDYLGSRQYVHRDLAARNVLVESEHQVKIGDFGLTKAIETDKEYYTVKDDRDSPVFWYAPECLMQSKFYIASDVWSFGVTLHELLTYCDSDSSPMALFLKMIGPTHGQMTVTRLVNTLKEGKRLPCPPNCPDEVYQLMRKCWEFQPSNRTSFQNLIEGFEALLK

For `CS(=O)(=O)c1ccc(Nc2nn([C@@H]3CCC[C@H]3C#N)c3cc[nH]c(=O)c23)cc1`, the IC50 – broadly, the concentration at which inhibition is half-maximal – in assay [1] is 4.7 nM.

Consider `Cc1cc(Nc2nn([C@H]3CCCC[C@@H]3C#N)c3cc[nH]c(=O)c23)ccc1C(=O)N1CCC(F)(F)CC1`, for which the IC50 was 0.32 nM in assay [1] and 0.37 nM in assay [2].

In the case of `CN(C)S(=O)(=O)c1ccc(Nc2nn([C@H]3CCC[C@@H]3C#N)c3cc[nH]c(=O)c23)cc1`, the IC50 in assay [1] was 0.11 nM; in assay [2] it was 0.3 nM.

For `N#C[C@H]1C[C@H](O)CC[C@@H]1n1nc(Nc2ccc(C(F)(F)F)cc2)c2c(=O)[nH]ccc21`, the IC50 in assay [1] is 0.48 nM.

Source of the values: ChEMBL document CHEMBL5726283, “Cycloalkyl nitrile pyrazolo pyridones as Janus kinase inhibitors” (2017).
